{
  "source": "patent US10563272B2",
  "about": "“Compositions comprising Metarhizium fungi and use thereof as a pesticide” (Cotton Research and Development Corporation, priority 2015, dated 2020)",
  "key": {"predatory bugs": {"test_system": "predatory bugs", "assay": "Bollgard II cotton, Auscott-Togo 2012-13, Field 77 (Experiment 1): predatory bugs", "assay_type": "in vivo, Hemiptera (Nabidae, Lygaeidae, Pentatomidae)", "conditions": "62.5 mL/ha", "description": "(§1) Two separate trials (Experiment 1 in Field 77; Experiment 2 in Field 63) were conducted in Bollgard II cotton crops on a commercial cotton farm at Auscott-Togo near Narrabri, New South Wales from 11 Feb. to 5 Mar. 2013 (Field 77) and 19 Feb. to 6 Mar. 2013 (Field 63). The cotton used for each of the trials was at the late squaring to pod setting and maturation stages which was fairly attractive to green mirids.\n(§2) In both trials, the efficacy of the following treatments against green mirids and predatory insects was evaluated: • 1. 250 mL/ha DAT 511 spore in oil (1×10^7 spores/ml); • 2. 500 mL/ha DAT 511 spore in oil (1×10^7 spores/ml); • 3. 1 L/ha DAT 511 spore in oil (1×10^7 spores/ml); • 4. 62.5 mL/ha of fipronil; and • 5. Unsprayed (negative control).\n(§3) The treatment plots were arranged in a randomized complete block design with six replicates per treatment. Each replicated plot measured 40 m wide (40 rows) and 90 m long.\n(§4) Foliar application of each treatment was made on 28 Feb. (for both green mirids and beneficial insects) and 13 Mar. 2012 (for beneficial insects alone) using a ground spray rig fitted with flat fan nozzles to achieve a droplet size of 200 μm. The treatment was applied during the mornings when temperatures were between 20° C. and 28° C. The timing of treatment was based on the IPM Guidelines and recommendations by CottonLogic to use an economic threshold of 0.5 green mirids per metre (Deutscher and Wilson 1999; Khan et al. 2004).\n(§5) Pre-treatment counts of green mirid adults and nymphs, predatory beetles, predatory bugs, predatory lacewings and spiders were made by visual inspection of whole cotton plants. Both adults and nymphs of beneficial insects were counted. Plants were assessed in randomly selected one-metre lengths of row of each replicate (i.e. 6 m per treatment). Post-treatment counts were made 3, 7, 14 and 21 days after treatment. Data are expressed as numbers of green mirid adults and nymphs counted per metre for each treatment."}, "[1]": {"test_system": "green mirid adults and nymphs", "assay": "Bollgard II cotton, Auscott-Togo 2012-13, Field 77 (Experiment 1): green mirids", "assay_type": "in vivo, Creontiades dilutus", "conditions": "62.5 mL/ha", "description": "as §1, §2, §3, §4, §5"}, "[2]": {"test_system": "green mirid adults and nymphs", "assay": "Bollgard II cotton, Auscott-Togo 2012-13, Field 63 (Experiment 2): green mirids", "assay_type": "in vivo, Creontiades dilutus", "conditions": "62.5 mL/ha", "description": "as §1, §2, §3, §4, §5"}, "predatory beetles": {"test_system": "predatory beetles", "assay": "Bollgard II cotton, Auscott-Togo 2012-13, Field 63 (Experiment 2): predatory beetles", "assay_type": "in vivo, Coleoptera (Coccinellidae, Melyridae)", "conditions": "62.5 mL/ha", "description": "as §1, §2, §3, §4, §5"}, "lacewings": {"test_system": "lacewings", "assay": "Rate trial on conventional cotton, Norwood 2012 (Example 10): lacewings", "assay_type": "in vivo, Chrysopa spp., Micromus tasmaniae", "conditions": "P>0.05", "description": "This trial was conducted on commercial conventional cotton crops on a farm at Norwood (29° 28'S, 149° 50′E) near Moree, NSW, from 28 Feb. to 21 Mar. 2012. The cotton used for the trial was at the early squaring stage, when it was attractive to green mirids (Khan et al. 2004).\nas §2, with “The” for “In both trials, the”, “were” for “was”, “Fipronil;” for “fipronil;”\nas §3\nFoliar application of each treatment was made on 28 Feb. (for both green mirids and beneficial insects) and 13 Mar. […]\nPre-treatment counts of adult and nymph green mirids, predatory beetles, predatory bugs, predatory lacewings and spiders were made by visual inspection of whole cotton plants. Both adults and nymphs of beneficial insects were counted. Plants were assessed in randomly selected one-metre lengths of row of each treatment replicate (i.e. 6 m per treatment). […] Data are expressed as numbers of green mirid adults and nymphs counted per metre per treatment."}},
  "data": [
    {"smiles": "N#Cc1nn(-c2c(Cl)cc(C(F)(F)F)cc2Cl)c(N)c1[S+]([O-])C(F)(F)F", "note": "(stereo not drawn) [fipronil]", "values": [
      {"measurement": "number of predatory bugs per meter", "setting": "predatory bugs; 3 DAT", "value": "0.33 ± 0.00", "unit": "a per meter"},
      {"measurement": "number of predatory bugs per meter", "setting": "predatory bugs; 7 DAT", "value": "0.00 ± 0.00", "unit": "a per meter"},
      {"measurement": "number of predatory bugs per meter", "setting": "predatory bugs; 14 DAT", "value": "0.00 ± 0.00", "unit": "a per meter"},
      {"measurement": "number of predatory bugs per meter", "setting": "predatory bugs; 21 DAT", "value": "0.67 ± 0.33", "unit": "a per meter"},
      {"measurement": "number of predatory bugs per meter", "setting": "predatory bugs; pre-spray counts", "value": "0.33 ± 0.33", "unit": "a per meter"},
      {"measurement": "No. green mirid adults and nymphs per meter", "setting": "[1]; 3 DAT", "value": "1.33 ± 0.33", "unit": "a per meter"},
      {"measurement": "No. green mirid adults and nymphs per meter", "setting": "[1]; 7 DAT", "value": "0.00 ± 0.00", "unit": "b per meter"},
      {"measurement": "No. green mirid adults and nymphs per meter", "setting": "[1]; 14 DAT", "value": "0.00 ± 0.00", "unit": "a per meter"},
      {"measurement": "No. green mirid adults and nymphs per meter", "setting": "[1]; 21 DAT", "value": "0.00 ± 0.00", "unit": "a per meter"},
      {"measurement": "No. green mirid adults and nymphs per meter", "setting": "[1]; pre-spray counts", "value": "4.33 ± 0.67", "unit": "a per meter"},
      {"measurement": "No. green mirid adults and nymphs per meter", "setting": "[2]; 3 DAT", "value": "0.33 ± 0.33", "unit": "a per meter"},
      {"measurement": "No. green mirid adults and nymphs per meter", "setting": "[2]; 7 DAT", "value": "0.00 ± 0.00", "unit": "a per meter"},
      {"measurement": "No. green mirid adults and nymphs per meter", "setting": "[2]; 14 DAT", "value": "0.33 ± 0.33", "unit": "a per meter"},
      {"measurement": "No. green mirid adults and nymphs per meter", "setting": "[2]; 21 DAT", "value": "0.00 ± 0.00", "unit": "a per meter"},
      {"measurement": "No. green mirid adults and nymphs per meter", "setting": "[2]; pre-spray counts", "value": "1.67 ± 0.33", "unit": "a per meter"},
      {"measurement": "No. predatory beetles per meter", "setting": "predatory beetles; 3 DAT", "value": "2.67 ± 0.33", "unit": "a per meter"},
      {"measurement": "No. predatory beetles per meter", "setting": "predatory beetles; 7 DAT", "value": "2.33 ± 0.33", "unit": "a per meter"},
      {"measurement": "No. predatory beetles per meter", "setting": "predatory beetles; 14 DAT", "value": "0.67 ± 0.33", "unit": "a per meter"},
      {"measurement": "No. predatory beetles per meter", "setting": "predatory beetles; 21 DAT", "value": "1.67 ± 0.33", "unit": "a per meter"},
      {"measurement": "No. predatory beetles per meter", "setting": "predatory beetles; pre-spray counts", "value": "5.67 ± 0.67", "unit": "ab per meter"},
      {"measurement": "number of lacewings versus unsprayed (control) plots", "setting": "lacewings", "value": "No significant difference"}
    ]}
  ]
}
